Measurements from patent US6649379B1, “Method and deregulated enzyme for threonine production” (priority 1987, dated 2003).

T1: homoserine dehydrogenase enzyme of C. glutamicum (Corynebacterium glutamicum, UniProt P08499)
T1 sequence (P08499 1-445): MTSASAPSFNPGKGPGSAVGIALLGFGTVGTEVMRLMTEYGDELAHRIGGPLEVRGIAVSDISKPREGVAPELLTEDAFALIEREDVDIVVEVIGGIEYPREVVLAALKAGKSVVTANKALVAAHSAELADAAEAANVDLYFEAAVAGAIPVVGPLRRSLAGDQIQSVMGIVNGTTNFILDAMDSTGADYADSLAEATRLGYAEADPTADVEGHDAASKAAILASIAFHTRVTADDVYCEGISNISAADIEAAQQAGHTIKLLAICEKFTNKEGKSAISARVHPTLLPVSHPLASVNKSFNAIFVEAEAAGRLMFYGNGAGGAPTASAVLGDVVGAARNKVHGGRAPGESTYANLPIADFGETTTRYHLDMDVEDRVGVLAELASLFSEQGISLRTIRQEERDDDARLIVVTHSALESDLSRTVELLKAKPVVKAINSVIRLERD

T2: homoserine dehydrogenase (Corynebacterium glutamicum, UniProt P08499)
T2 construct: Crude cell lysates for homoserine dehydrogenase assays were prepared from 500 ml MMCG C. glutamicum AS019 and R102 cultures; endogenous in cells; host or cells: C. glutamicum AS019 and AS019E12/pMF33 (chromosomal wild-type hom); R102 (chromosomal hom^dr); AS019E12/pJD4 (plasmid-borne hom^dr beside chromosomal wild-type hom)
T2 sequence (P08499 whole entry, looked up): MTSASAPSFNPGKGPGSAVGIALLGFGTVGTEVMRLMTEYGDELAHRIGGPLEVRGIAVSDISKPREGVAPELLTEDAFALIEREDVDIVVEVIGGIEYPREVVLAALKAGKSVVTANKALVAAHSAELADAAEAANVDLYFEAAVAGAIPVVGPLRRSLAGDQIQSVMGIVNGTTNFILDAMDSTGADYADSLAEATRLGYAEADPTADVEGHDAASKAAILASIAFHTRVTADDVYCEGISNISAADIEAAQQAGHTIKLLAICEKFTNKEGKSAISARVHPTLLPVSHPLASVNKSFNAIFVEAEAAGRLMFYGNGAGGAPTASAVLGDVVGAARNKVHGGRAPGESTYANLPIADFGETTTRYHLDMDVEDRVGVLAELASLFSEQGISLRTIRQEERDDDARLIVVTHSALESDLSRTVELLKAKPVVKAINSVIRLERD


Legend:
[1] = target: T3, homoserine dehydrogenase (Corynebacterium glutamicum, UniProt P08499); assay: Homoserine dehydrogenase activity in crude cell extracts (initial decrease in absorbance at 340 nm by NADPH); type: biochemical, C. glutamicum
T3 construct: Crude cell lysates for homoserine dehydrogenase assays were prepared from 500 ml MMCG C. glutamicum AS019 and R102 cultures; endogenous in cells; host or cells: C. glutamicum AS019 and AS019E12/pMF33 (chromosomal wild-type hom); R102 (chromosomal hom^dr); AS019E12/pJD4 (plasmid-borne hom^dr beside chromosomal wild-type hom)
Protocol: Verified pJD4/AS019EI2 transformants were selected for the presence of the plasmid by growth on kanamycin supplemented mediums. The activity of the homoserine dehydrogenase from crude cell extracts of these cultures was determined in the presence and absence of L-threonine. A host cell encoding wild type homoserine dehydrogenase would be inactivated in the presence of 10 mM L-threonine. […] Therefore, homoserine dehydrogenase activity in the presence of L-threonine was derived from the cloned hom^dr gene. The specific activity of the deregulated homoserine dehydrogenase is approximately the same as that reported for the C. glutamicum chromosomal hom gene (0.0450 μM ml^−1min^1) The cloned hom^dr gene product was functional even in the presence of 120 mM L-threonine.
One ml of the supernatant from an overnight 10 ml MMCG culture of an alpha-hydroxy-valerate tolerant C. glutamicum isolate was filter sterilized and added 1:10 to a fresh 10 ml MMCG medium. […] Growth of AS155 was determined by densitometry after a 24 hour incubation at 30° C. […] The activity of homoserine dehydrogenase in crude cell extracts of C. glutamicum R102 and AS019 in the presence of both threonine and alpha-hydroxy-valerate was measured. […] Homoserine dehydrogenase activity was assayed by determining the initial decrease in the absorbance at 340 nm by NADPH as described by Follettie et al., Mol. Microbiol. […]

[2] = target: T1, homoserine dehydrogenase enzyme of C. glutamicum; settings: threonine inhibition of C. glutamicum homoserine dehydrogenase; read-out: inhibition rate constant (Ki); cited from earlier work
[3] = target: T2, homoserine dehydrogenase; parameters: specific activity reported for the C. glutamicum chromosomal hom gene: unit not given here; settings: reported value, cited from earlier work

Molecule | effect of 10 mM L-threonine on wild type homoserine dehydrogenase [1] | Ki [2] | specific activity reported for the C. glutamicum chromosomal hom gene [3] | specific activity reported for wild type ([3]; wild type homoserine dehydrogenase)
C[C@@H](O)[C@H](N)C(=O)O [L-threonine] | inactivate | 160 µM | – | –
wild type: wild type C. glutamicum homoserine dehydrogenase (SEQ ID NO:2) (protein) MTSASAPSFNPGKGPGSAVGIALLGFGTVGTEVMRLMTEYGDELAHRIGGPLEVRGIAVSDISKPREGVAPELLTEDAFALIEREDVDIVVEVIGGIEYPREVVLAALKAGKSVVTANKALVAAHSAELADAAEAANVDLYFEAAVAGAIPVVGPLRRSLAGDQIQSVMGIVNGTTNFILDAMDSTGADYADSLAEATRLGYAEADPTADVEGHDAASKAAILASIAFHTRVTADDVYCEGISNISAADIEAAQQAGHTIKLLAICEKFTNKEGKSAISARVHPTLLPVSHPLASVNKSFNAIFVEAEAAGRLMFYGNGAGGAPTASAVLGDVVGAARNKVHGGRAPGESTYANLPIADFGETTTRYHLDMDVEDRVGVLAELASLFSEQGISLRTIRQEERDDDARLIVVTHSALESDLSRTVELLKAKPVVKAINSVIRLERD | – | – | 0.0450 | 0.0450 μM ml^−1min^−1
